Experimental data taken from US20020137929A1, “1 - (3-heterocyclylphenyl) isothiourea, -isourea, -guanidine and -amidine herbicidal agents” (Intellectual Property Department, BASF Aktiengesellschaft, priority 1998, published 2002).

How the values were obtained:
CASOB (Sicklepod) = assay: Postemergence herbicidal evaluation; type: in vivo, Cassia obtusifolia; conditions: postemergence
Method in brief: (§1)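 Scores (0–9) reflect plant stand, vigor, malformation, size, chlorosis and general appearance relative to control, read 4 to 5 weeks after treatment and averaged where tests were repeated. Application: about 0.0156–0.500 kg/ha sprayed at 40 psi onto two-week seedlings.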

[1] = system: CHEAL (Lambsquarters, Common); assay: Postemergence herbicidal evaluation; type: in vivo, Chenopodium album; conditions: postemergence
Method in brief: as §1

[2] = system: TRZAWR (Wheat, Winter, cv Riband); assay: Postemergence herbicidal evaluation; type: in vivo, Triticum aestivum; conditions: postemergence
Method in brief: as §1

[3] = system: CHEAL (Lambsquarters, Common); assay: Preemergence herbicidal evaluation; type: in vivo, Chenopodium album; conditions: rated 4-5 weeks after treatment; for CHEAL rating: preemergence, 0-9 scale
Method in brief: (§2)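 Test compound, dissolved in aqueous acetone, was sprayed over planted soil cups at an equivalent of about 0.0156 to 0.500 kg/ha; seeds had been mixed with potting soil. Greenhouse growth followed, with visual 0-9 scoring of injury at four to five weeks.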

ORYSAT (Rice, Tebonnet) = assay: Preemergence herbicidal evaluation; type: in vivo, Oryza sativa, (L.) Tebonnet; conditions: rated 4-5 weeks after treatment; for ORYSAT rating: preemergence, 0-9 scale
Method in brief: as §2

MOOVA (Monochoria) = assay: Postemergence weed control under flooded paddy conditions; type: in vivo, Monochoria vaginalis; conditions: postemergence weeds
Method in brief: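 Injury ratings (0–9 scale covering stand, vigor, malformation, size, chlorosis and overall appearance versus control) were made three to four weeks after treatment. Test material, about 0.0313 to 0.500 kg/ha a.i. in 50/50 v/v aqueous/acetone, was added to flood water 1.5 to 3 cm deep over 3 to 5 cm weeds and 1.5 to 2.5 leaf rice.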

## CCOC(=O)CN1C(=O)CO/C1=N/c1cc(-n2c(=O)cc(C(F)(F)F)n(C)c2=O)c(F)cc1Cl [Compound 22, Ethyl 2-{{2-chloro-5-[3,6-dihydro-3-methyl-2,6-dioxo-4-(trifluoromethyl)-1(2H)-pyrimidinyl]-4-fluorophenyl}imino}-4-oxo-3-oxazolidineacetate]
CASOB (Sicklepod); rate 0.0158 kg/ha
  CASOB herbicidal rating: 1.0
CASOB (Sicklepod); rate 0.0315 kg/ha
  CASOB herbicidal rating: 2.0
CASOB (Sicklepod); rate 0.0630 kg/ha
  CASOB herbicidal rating: 1.0
[1]; rate 0.0158 kg/ha
  CHEAL herbicidal rating: 4.0
[1]; rate 0.0315 kg/ha
  CHEAL herbicidal rating: 6.0
[1]; rate 0.0630 kg/ha
  CHEAL herbicidal rating: 3.0
[2]; rate 0.0158 kg/ha
  TRZAWR herbicidal rating: 4.0
[2]; rate 0.0315 kg/ha
  TRZAWR herbicidal rating: 3.5
[2]; rate 0.0630 kg/ha
  TRZAWR herbicidal rating: 5.0
[3]; rate 0.0156 kg/ha
  CHEAL preemergence herbicidal rating: 9.0
[3]; rate 0.0313 kg/ha
  CHEAL preemergence herbicidal rating: 9.0
[3]; rate 0.0625 kg/ha
  CHEAL preemergence herbicidal rating: 9.0
[3]; rate 0.1250 kg/ha
  CHEAL preemergence herbicidal rating: 9.0
[3]; rate 0.2500 kg/ha
  CHEAL preemergence herbicidal rating: 9.0
ORYSAT (Rice, Tebonnet); rate 0.0156 kg/ha
  ORYSAT preemergence herbicidal rating: 0.0
ORYSAT (Rice, Tebonnet); rate 0.0313 kg/ha
  ORYSAT preemergence herbicidal rating: 0.0
ORYSAT (Rice, Tebonnet); rate 0.0625 kg/ha
  ORYSAT preemergence herbicidal rating: 0.0
ORYSAT (Rice, Tebonnet); rate 0.1250 kg/ha
  ORYSAT preemergence herbicidal rating: 5.0
ORYSAT (Rice, Tebonnet); rate 0.2500 kg/ha
  ORYSAT preemergence herbicidal rating: 8.0
MOOVA (Monochoria); rate 0.1160 kg/ha, 3-4 weeks after treatment
  Herbicidal rating MOOVA: 9.0
MOOVA (Monochoria); rate 0.2310 kg/ha, 3-4 weeks after treatment
  Herbicidal rating MOOVA: 9.0
MOOVA (Monochoria); rate 0.4630 kg/ha, 3-4 weeks after treatment
  Herbicidal rating MOOVA: 9.0

## CCOC(=O)CN1C(=O)C(CC(=O)NO)S/C1=N/c1cc(-n2c(=O)cc(C(F)(F)F)n(C)c2=O)c(F)cc1Cl (centres unmarked) [Compound 98, Ethyl 2-{{2-chloro-5-[3,6-dihydro-3-methyl-2,6-dioxo-4-(trifluoromethyl)-1(2H)-pyrimidinyl]-4-fluorophenyl}imino}-5-[(hydroxycarbamoyl)methyl]-4-oxo-3-thiazolidineacetate]
CASOB (Sicklepod); rate 0.0156 kg/ha
  CASOB herbicidal rating: 0.0
CASOB (Sicklepod); rate 0.0313 kg/ha
  CASOB herbicidal rating: 0.0
CASOB (Sicklepod); rate 0.0625 kg/ha
  CASOB herbicidal rating: 0.0
CASOB (Sicklepod); rate 0.1250 kg/ha
  CASOB herbicidal rating: 1.0
[1]; rate 0.0156 kg/ha
  CHEAL herbicidal rating: 0.0
[1]; rate 0.0313 kg/ha
  CHEAL herbicidal rating: 1.0
[1]; rate 0.0625 kg/ha
  CHEAL herbicidal rating: 3.0
[1]; rate 0.1250 kg/ha
  CHEAL herbicidal rating: 9.0
[2]; rate 0.0156 kg/ha
  TRZAWR herbicidal rating: 2.5
[2]; rate 0.0313 kg/ha
  TRZAWR herbicidal rating: 2.5
[2]; rate 0.0625 kg/ha
  TRZAWR herbicidal rating: 3.0
[2]; rate 0.1250 kg/ha
  TRZAWR herbicidal rating: 3.0
[3]; 0.0156 kg/ha
  CHEAL rating: 0.0
[3]; 0.0313 kg/ha
  CHEAL rating: 2.0
[3]; 0.0625 kg/ha
  CHEAL rating: 5.0
[3]; 0.1250 kg/ha
  CHEAL rating: 7.0
[3]; 0.2500 kg/ha
  CHEAL rating: 9.0
[3]; 0.5000 kg/ha
  CHEAL rating: 9.0
ORYSAT (Rice, Tebonnet); 0.0156 kg/ha
  ORYSAT rating: 0.0
ORYSAT (Rice, Tebonnet); 0.0313 kg/ha
  ORYSAT rating: 0.0
ORYSAT (Rice, Tebonnet); 0.0625 kg/ha
  ORYSAT rating: 0.0
ORYSAT (Rice, Tebonnet); 0.1250 kg/ha
  ORYSAT rating: 0.0
ORYSAT (Rice, Tebonnet); 0.2500 kg/ha
  ORYSAT rating: 1.0
ORYSAT (Rice, Tebonnet); 0.5000 kg/ha
  ORYSAT rating: 4.0
MOOVA (Monochoria); Rate 0.0313 kg/ha, rated 3 to 4 weeks after treatment
  Herbicidal rating MOOVA: 9.0
MOOVA (Monochoria); Rate 0.0625 kg/ha, rated 3 to 4 weeks after treatment
  Herbicidal rating MOOVA: 9.0
MOOVA (Monochoria); Rate 0.1250 kg/ha, rated 3 to 4 weeks after treatment
  Herbicidal rating MOOVA: 9.0
MOOVA (Monochoria); Rate 0.2500 kg/ha, rated 3 to 4 weeks after treatment
  Herbicidal rating MOOVA: 9.0
